Paper PMC11149917, “Translational and Therapeutic Evaluation of RAS-GTP Inhibition by RMC-6236 in RAS-Driven Cancers” (Cancer Discovery, 2024)
Several values for one entry are separate records, joined by “and”; a condition that tells them apart may be missing. Identical values can stand only once.

How the values were obtained:
[1] = system: DUSP6 mRNA in KP-4 xenograft tumors; assay: In vivo PD by DUSP6 qPCR and PK/PD relationship; parameters: species or system mouse
Protocol: (§1) Tumor-bearing animals were randomized and assigned into groups (n = 1–10/group). The vehicle at 10 mL/kg or RMC-6236 at indicated doses was administered via oral gavage daily, and animals were treated for 28 days, or up to 90 days if PFS was being assessed. […] For single-dose PKPD study, mice were randomized and assigned into groups (n = 3/dose/time point). A single dose of RMC-6236 was administered orally at either 3, 10, or 25 mg/kg. Blood and tissues, including the tumor, brain, colon, ear skin, and muscle, were harvested at indicated time points. Whole blood was collected in K2EDTA Microtainer tubes, incubated for 5 minutes, and snap-frozen in liquid nitrogen. The tissue was either fixed in 10% formalin or snap-frozen in liquid nitrogen for further analysis.
(§2) RNA was extracted from at least 20 mg of tissue using an RNeasy Mini Kit (Qiagen, 74104) and a High-Throughput Tissue grinder following the manufacturer's protocol. Reverse transcription was carried out using High-Capacity cDNA Reverse Transcription Kit (ABI, 4368814) according to the manufacturer's protocol. The cDNA product was used for qPCR analysis using TaqMan Gene-Expression Master Mix (ABI, 4369016). TaqMan primer probes specific to DUSP6 (human—Hs00737962_m1, murine—Mm00518185_m1, FAM-MGB) and 18S (RNA18S1; human—Hs99999901_s1, murine—Mm03928990_g1, FAM-MGB, used as an internal control gene) were used to detect the levels from each sample in duplicates using a 10 µL final reaction volume in a 384-well clear optical reaction plate. For qPCR, Ct values of DUSP6 and 18S were obtained for analysis. DUSP6 Ct value was normalized to 18S, and then the mean relative mRNA expression levels of each group were normalized to the vehicle control group. Values were plotted as relative change in mRNA expression compared with vehicle. Means ± SEM were shown.
(§3) Concentrations of RMC-6236 in tumor or normal tissues and percentage of DUSP6 inhibition as compared with the vehicle control from individual animals were collected and analyzed post a single dose of RMC-6236 ranging from 0.3 to 100 mg/kg (Supplementary Table S6). A 3-parameter sigmoidal exposure–response model was fitted to the data in GraphPad Prism to derive EC50 and EC90 values.

[2] = system: DUSP6 mRNA in HPAC xenograft tumors; assay: In vivo PD by DUSP6 qPCR and PK/PD relationship; parameters: species or system mouse; settings: for % inhibition of DUSP6 vs control: individual animals
Protocol: as §1, §2, §3

In the case of `CCn1c(-c2cc(N3CCN(C)CC3)cnc2[C@H](C)OC)c2c3cc(ccc31)-c1csc(n1)C[C@H](NC(=O)[C@H]1C[C@@H]1C)C(=O)N1CCC[C@H](N1)C(=O)OCC(C)(C)C2` [RMC-6236], the “DUSP6 mRNA(% normalized to control)” value ([1]; KP-4 (25 mg/kg x 31d), 8h) is reported as 3.6%, the “DUSP6 mRNA(% normalized to control)” value ([1]; KP-4 (25 mg/kg x 31d), 24h) is reported as 36.2% and the “DUSP6 mRNA(% normalized to control)” value ([1]; KP-4 (25 mg/kg), 2h) is reported as 115.7%. The “DUSP6 mRNA(% normalized to control)” value ([1]; KP-4 (25 mg/kg), 4h) was 18.9%, the “DUSP6 mRNA(% normalized to control)” value ([1]; KP-4 (25 mg/kg), 8h) was 10.7% and the “DUSP6 mRNA(% normalized to control)” value ([1]; KP-4 (25 mg/kg), 12h) was 4.3%. For the same molecule, the “DUSP6 mRNA(% normalized to control)” value ([1]; KP-4 (25 mg/kg), 24h) was 37.1%, the “DUSP6 mRNA(% normalized to control)” value ([1]; KP-4 (25 mg/kg), 48h) was 48.3% and the “% inhibition of DUSP6 vs control” value ([1]; KP-4, study KP-4 #3, 25 mg/kg, 4h) was 83.13% and 97.7% and 98.74%. For the same molecule, the “% inhibition of DUSP6 vs control” value ([1]; KP-4, study KP-4 #3, 25 mg/kg, 8h) was 99.27% and 98.8% and 98.46%, the “% inhibition of DUSP6 vs control” value ([1]; KP-4, study KP-4 #3, 25 mg/kg, 24h) was 84.47% and 92.71% and 89.79% and the “% inhibition of DUSP6 vs control” value ([1]; KP-4, study KP-4 #3, 50 mg/kg, 4h) was 99.82% and 89.5% and 98.09%. The “% inhibition of DUSP6 vs control” value ([1]; KP-4, study KP-4 #3, 50 mg/kg, 8h) was 99.77% and 99.81% and 99.62%, the “% inhibition of DUSP6 vs control” value ([1]; KP-4, study KP-4 #3, 50 mg/kg, 24h) was 96.99% and 96.44% and 98.05% and the “% inhibition of DUSP6 vs control” value ([1]; KP-4, study KP-4 #3, 50 mg/kg, 48h) was 83.3% and 81.21% and 85.91%. The “% inhibition of DUSP6 vs control” value ([1]; KP-4, study KP-4 #4, 25 mg/kg, 8h) was 95.62% and 96.57% and 90.57%, the “% inhibition of DUSP6 vs control” value ([1]; KP-4, study KP-4 #4, 25 mg/kg, 24h) was 87.48% and 87.9% and 94.68% and the “% inhibition of DUSP6 vs control” value ([1]; KP-4, study KP-4 #4, 40 mg/kg, 8h) was 96.06% and 97.31% and 95.84%. For the same molecule, the “% inhibition of DUSP6 vs control” value ([1]; KP-4, study KP-4 #4, 40 mg/kg, 24h) was 75.38% and 93.78% and 96.21%, the “% inhibition of DUSP6 vs control” value ([1]; KP-4, study KP-4 #4, 100 mg/kg, 8h) was 99.67% and 97.58% and 99.05% and the “% inhibition of DUSP6 vs control” value ([1]; KP-4, study KP-4 #4, 100 mg/kg, 24h) was 98.22% and 98.9% and 97.78%. For the same molecule, the “% inhibition of DUSP6 vs control” value ([1]; KP-4, study KP-4 #4, 100 mg/kg, 48h) was 68.4% and 89.83% and 80.41%, the “% inhibition of DUSP6 vs control” value ([1]; KP-4, study KP-4 #5, 25 mg/kg, 4h) was 96.1077% and 90.078% and 87.6997% and the “% inhibition of DUSP6 vs control” value ([1]; KP-4, study KP-4 #5, 25 mg/kg, 8h) was 91.9687% and 92.3226% and 98.2581%. For the same molecule, the “% inhibition of DUSP6 vs control” value ([1]; KP-4, study KP-4 #5, 25 mg/kg, 24h) was 65.5692% and 78.5839% and 66.1607%, the “% inhibition of DUSP6 vs control” value ([1]; KP-4, study KP-4 #6, 3 mg/kg, 8h) was 59.13% and 61.2% and 53.53% and the “% inhibition of DUSP6 vs control” value ([1]; KP-4, study KP-4 #6, 3 mg/kg, 24h) was 48.26% and 46.44% and 45.31%. The “% inhibition of DUSP6 vs control” value ([1]; KP-4, study KP-4 #6, 3 mg/kg, 48h) was 0% and 3.79%, the “% inhibition of DUSP6 vs control” value ([1]; KP-4, study KP-4 #6, 10 mg/kg, 4h) was 74.13% and 85.85% and 59.13% and the “% inhibition of DUSP6 vs control” value ([1]; KP-4, study KP-4 #6, 10 mg/kg, 8h) was 70.29% and 97.17% and 70.69%. The “% inhibition of DUSP6 vs control” value ([1]; KP-4, study KP-4 #6, 10 mg/kg, 48h) was 8.03% and 13.59% and 9.61%, the “% inhibition of DUSP6 vs control” value ([1]; KP-4, study KP-4 #6, 25 mg/kg, 4h) was 93.33% and 56.04% and 93.99% and the “% inhibition of DUSP6 vs control” value ([1]; KP-4, study KP-4 #6, 25 mg/kg, 8h) was 85.45% and 84.94% and 97.45%. The “% inhibition of DUSP6 vs control” value ([1]; KP-4, study KP-4 #6, 25 mg/kg, 12h) was 93.75% and 94.27% and 98.93%, the “% inhibition of DUSP6 vs control” value ([1]; KP-4, study KP-4 #6, 25 mg/kg, 48h) was 63.92% and 39.53% and the EC50 ([1]; Mus musculus, KP-4 xenograft tumors, read-out: EC50, inhibition of DUSP6 expression vs RMC-6236 concentration (PK/PD relationship)) was 454 nM. For the same molecule, the EC90 ([1]; Mus musculus, KP-4 xenograft tumors, read-out: EC90, inhibition of DUSP6 expression vs RMC-6236 concentration (PK/PD relationship)) was 2890 nM, the “% inhibition of DUSP6 vs control” value ([2]; HPAC #3, 50 mg/kg, 4h) was 99.6% and 99.3% and the “% inhibition of DUSP6 vs control” value ([2]; HPAC #3, 50 mg/kg, 8h) was 99.8% and 99.7%. For the same molecule, the “% inhibition of DUSP6 vs control” value ([2]; HPAC #3, 50 mg/kg, 24h) was 99.9% and 99.8%, the “% inhibition of DUSP6 vs control” value ([2]; HPAC #3, 50 mg/kg, 48h) was 99.3% and 98% and 97.1% and the “% inhibition of DUSP6 vs control” value ([2]; HPAC #4, 3 mg/kg, 4h) was 8.1% and 58% and 27.9%. For the same molecule, the “% inhibition of DUSP6 vs control” value ([2]; HPAC #4, 3 mg/kg, 8h) was 54.7% and 65.2% and 84.3%, the “% inhibition of DUSP6 vs control” value ([2]; HPAC #4, 3 mg/kg, 24h) was 0% and 40.8% and 37.2% and the “% inhibition of DUSP6 vs control” value ([2]; HPAC #4, 3 mg/kg, 48h) was 0% and 22.7% and 33.9%. The “% inhibition of DUSP6 vs control” value ([2]; HPAC #4, 10 mg/kg, 4h) was 93.6% and 96.1% and 97.9%, the “% inhibition of DUSP6 vs control” value ([2]; HPAC #4, 10 mg/kg, 8h) was 98.9% and 99.6% and 97.1% and the “% inhibition of DUSP6 vs control” value ([2]; HPAC #4, 10 mg/kg, 24h) was 80.3% and 56.7% and 91.1%. For the same molecule, the “% inhibition of DUSP6 vs control” value ([2]; HPAC #4, 10 mg/kg, 48h) was 8.1% and 47% and 59.6%, the “% inhibition of DUSP6 vs control” value ([2]; HPAC #4, 25 mg/kg, 4h) was 99.6% and 97.7% and 93.3% and the “% inhibition of DUSP6 vs control” value ([2]; HPAC #4, 25 mg/kg, 8h) was 99.9% and 99.4% and 99.8%. For the same molecule, the “% inhibition of DUSP6 vs control” value ([2]; HPAC #4, 25 mg/kg, 24h) was 99.3% and 99.2% and 99.6%, the “% inhibition of DUSP6 vs control” value ([2]; HPAC #4, 25 mg/kg, 48h) was 97.6% and 96.7% and 87.9% and the “% inhibition of DUSP6 vs control” value ([2]; HPAC #11, 0.3 mg/kg, 4h) was 0% and 41.7%. For the same molecule, the “% inhibition of DUSP6 vs control” value ([2]; HPAC #11, 0.3 mg/kg, 8h) was 9.1% and 10.7% and 76.7%, the “% inhibition of DUSP6 vs control” value ([2]; HPAC #11, 0.3 mg/kg, 24h) was 0% and the “% inhibition of DUSP6 vs control” value ([2]; HPAC #11, 0.3 mg/kg, 48h) was 0%. The “% inhibition of DUSP6 vs control” value ([2]; HPAC #11, 1 mg/kg, 4h) was 48.3% and 77.5% and 97.1%, the “% inhibition of DUSP6 vs control” value ([2]; HPAC #11, 1 mg/kg, 8h) was 86.3% and 83.8% and 49.4% and the “% inhibition of DUSP6 vs control” value ([2]; HPAC #11, 1 mg/kg, 24h) was 4.9% and 0% and 23.3%. For the same molecule, the “% inhibition of DUSP6 vs control” value ([2]; HPAC #11, 1 mg/kg, 48h) was 24.6% and 0% and 42.3%, the EC50 ([2]; Mus musculus, HPAC, read-out: EC50, inhibition of DUSP6 expression vs RMC-6236 concentration (PK/PD relationship)) was 135 nM and the EC90 ([2]; Mus musculus, HPAC, read-out: EC90, inhibition of DUSP6 expression vs RMC-6236 concentration (PK/PD relationship)) was 925 nM.
